From the supplement of paper PMC10307832 come the findings set out here.

Holding throughout (assay): relative viability (nuclei count vs DMSO), 5 days (fraction); higher = more cells survive
Compound in test [1]: CN1CCN(c2ccc3nc(-c4c(N)c5c(F)cccc5[nH]c4=O)[nH]c3c2)CC1 [Dovitinib] + COc1cccc2cc(-c3nc([C@H]4CC[C@H](C(=O)O)CC4)n4ncnc(N)c34)[nH]c12 [OSI-027] (partner 0.5 µM)
An outline of the steps:
(§1)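 After 5 days of treatment, lung cancer cells in 1536-well plates were fixed and stained in a single step (final 0.05% Triton X-100, 1% formaldehyde, 1 ug/ml Hoechst) and their nuclei counted on 4× images. Treatment had been applied by pin tool the day after seeding as one drug alone or as a fixed anchor-drug dose with five library-drug doses (not always all listed) in √10 steps. Relative viability is the nuclei count of treated wells divided by that of vehicle wells, and values are medians of duplicate plates.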

Compound in test [2]: CN1CCN(c2ccc3nc(-c4c(N)c5c(F)cccc5[nH]c4=O)[nH]c3c2)CC1 [Dovitinib] + CC(=O)Nc1cccc(-n2c(=O)n(C3CC3)c(=O)c3c(Nc4ccc(I)cc4F)n(C)c(=O)c(C)c32)c1 [Trametinib] (partner 0.02 µM)
An outline of the steps: as §1

Compound in test [3]: CN1CCN(c2ccc3nc(-c4c(N)c5c(F)cccc5[nH]c4=O)[nH]c3c2)CC1 [Dovitinib] + C[C@]1(O)C[C@@H](c2nc(-c3ccc4ccc(-c5ccccc5)nc4c3)c3c(N)nccn32)C1 [Linsitinib] (partner 1 µM)
The essentials: as §1

Compound in test [4]: CN1CCN(c2ccc3nc(-c4c(N)c5c(F)cccc5[nH]c4=O)[nH]c3c2)CC1 [Dovitinib] + CS(=O)(=O)CCNCc1ccc(-c2ccc3ncnc(Nc4ccc(OCc5cccc(F)c5)c(Cl)c4)c3c2)o1 [Lapatinib] (partner 2 µM)
The essentials:
as §1

For the cell line PC-3 [JPC-3], the relative viability in test [1] (first compound 0.02 µM) was determined as 0.86; in test [1] (first compound 0.06325 µM) it was 0.767; in test [1] (first compound 0.2 µM), 0.8; in test [1] (first compound 0.6325 µM), 0.732; in test [1] (first compound 2 µM), 0.779; in test [2] (first compound 0.02 µM), 0.767. For the same cell line, the relative viability in test [2] (first compound 0.06325 µM) amounted to 0.675; in test [2] (first compound 0.2 µM) it was 0.731; in test [2] (first compound 0.6325 µM), 0.738; in test [2] (first compound 2 µM) it was 0.715; in test [3] (first compound 0.02 µM) it was 0.923; in test [3] (first compound 0.06325 µM), 0.907. In addition, the relative viability in test [3] (first compound 0.2 µM) turned out to be 0.983; in test [3] (first compound 0.6325 µM), 0.99; in test [3] (first compound 2 µM), 0.967; in test [4] (first compound 0.02 µM), 0.483; in test [4] (first compound 0.06325 µM) it was 0.398; in test [4] (first compound 0.2 µM), 0.466. Moreover, the relative viability amounted to 0.488 in test [4] (first compound 0.6325 µM) and 0.47 in test [4] (first compound 2 µM).

For PC-14, the relative viability in test [1] (first compound 0.02 µM) was 0.827; in test [1] (first compound 0.06325 µM), 0.804; in test [1] (first compound 0.2 µM) it was 1.02; in test [1] (first compound 0.6325 µM), 0.751; in test [1] (first compound 2 µM) it was 0.933; in test [2] (first compound 0.02 µM), 0.743. Besides, the relative viability in test [2] (first compound 0.06325 µM) was 0.795; in test [2] (first compound 0.2 µM), 0.822; in test [2] (first compound 0.6325 µM), 0.696; in test [2] (first compound 2 µM) it was 0.86; in test [3] (first compound 0.02 µM), 1.03; in test [3] (first compound 0.06325 µM) it was 0.954. The relative viability amounted to 0.969 in test [3] (first compound 0.2 µM); 0.996 in test [3] (first compound 0.6325 µM); 0.928 in test [3] (first compound 2 µM); 0.296 in test [4] (first compound 0.02 µM); 0.336 in test [4] (first compound 0.06325 µM); 0.308 in test [4] (first compound 0.2 µM). The figures for the relative viability in test [4] (first compound 0.6325 µM) and in test [4] (first compound 2 µM) were 0.309 and 0.279, respectively.

Consider RERF-LC-KJ, for which the relative viability turned out to be 0.639 in test [1] (first compound 0.02 µM); 0.623 in test [1] (first compound 0.06325 µM); 0.653 in test [1] (first compound 0.2 µM); 0.56 in test [1] (first compound 0.6325 µM); 0.574 in test [1] (first compound 2 µM); 0.928 in test [2] (first compound 0.02 µM). For the same cell line, the relative viability in test [2] (first compound 0.06325 µM) was determined as 0.837; in test [2] (first compound 0.2 µM), 1.01; in test [2] (first compound 0.6325 µM) it was 0.869; in test [2] (first compound 2 µM) it was 0.864; in test [3] (first compound 0.02 µM), 0.89; in test [3] (first compound 0.06325 µM), 0.934. In addition, the relative viability in test [3] (first compound 0.2 µM) came out at 0.938; in test [3] (first compound 0.6325 µM), 0.838; in test [3] (first compound 2 µM), 0.842; in test [4] (first compound 0.02 µM) it was 0.94; in test [4] (first compound 0.06325 µM), 0.884; in test [4] (first compound 0.2 µM) it was 0.853. The results for the relative viability in test [4] (first compound 0.6325 µM) and in test [4] (first compound 2 µM) were 0.909 and 0.825, respectively.

SK-LU-1: the relative viability is 0.3 in test [1] (first compound 0.02 µM); 0.386 in test [1] (first compound 0.06325 µM); 0.359 in test [1] (first compound 0.2 µM); 0.388 in test [1] (first compound 0.6325 µM); 0.316 in test [1] (first compound 2 µM); 0.429 in test [2] (first compound 0.02 µM). Moreover, the relative viability in test [2] (first compound 0.06325 µM) came out at 0.516; in test [2] (first compound 0.2 µM) it was 0.491; in test [2] (first compound 0.6325 µM), 0.551; in test [2] (first compound 2 µM), 0.52; in test [3] (first compound 0.02 µM), 1.1; in test [3] (first compound 0.06325 µM) it was 0.999. Further, the relative viability in test [3] (first compound 0.2 µM) turned out to be 0.966; in test [3] (first compound 0.6325 µM), 1.07; in test [3] (first compound 2 µM), 1.06; in test [4] (first compound 0.02 µM) it was 0.735; in test [4] (first compound 0.06325 µM) it was 0.927; in test [4] (first compound 0.2 µM) it was 0.875. The figures for the relative viability in test [4] (first compound 0.6325 µM) and in test [4] (first compound 2 µM) were 0.814 and 0.823, respectively.

On to SK-MES-1, for which the relative viability in test [1] (first compound 0.02 µM) was 0.56; in test [1] (first compound 0.06325 µM) it was 0.591; in test [1] (first compound 0.2 µM), 0.605; in test [1] (first compound 0.6325 µM), 0.601; in test [1] (first compound 2 µM), 0.612; in test [2] (first compound 0.02 µM), 0.531. The relative viability stood at 0.59 in test [2] (first compound 0.06325 µM); 0.597 in test [2] (first compound 0.2 µM); 0.567 in test [2] (first compound 0.6325 µM); 0.61 in test [2] (first compound 2 µM); 1.09 in test [3] (first compound 0.02 µM); 1.02 in test [3] (first compound 0.06325 µM). Also, the relative viability in test [3] (first compound 0.2 µM) was 1.09; in test [3] (first compound 0.6325 µM), 1.15; in test [3] (first compound 2 µM), 1.07; in test [4] (first compound 0.02 µM) it was 0.438; in test [4] (first compound 0.06325 µM), 0.47; in test [4] (first compound 0.2 µM), 0.482. In addition, the relative viability turned out to be 0.524 in test [4] (first compound 0.6325 µM) and 0.437 in test [4] (first compound 2 µM).

On to SW 1573, for which the relative viability worked out at 0.715 in test [1] (first compound 0.02 µM); 0.641 in test [1] (first compound 0.06325 µM); 0.676 in test [1] (first compound 0.2 µM); 0.455 in test [1] (first compound 0.6325 µM); 0.725 in test [1] (first compound 2 µM); 0.579 in test [2] (first compound 0.02 µM). Moreover, the relative viability in test [2] (first compound 0.06325 µM) was 0.617; in test [2] (first compound 0.2 µM) it was 0.563; in test [2] (first compound 0.6325 µM) it was 0.551; in test [2] (first compound 2 µM) it was 0.592; in test [3] (first compound 0.02 µM) it was 0.798; in test [3] (first compound 0.06325 µM), 0.795. The relative viability in test [3] (first compound 0.2 µM) amounted to 0.749; in test [3] (first compound 0.6325 µM), 0.766; in test [3] (first compound 2 µM) it was 0.864; in test [4] (first compound 0.02 µM), 1.18; in test [4] (first compound 0.06325 µM) it was 1.06; in test [4] (first compound 0.2 µM), 1.05. Further, the relative viability in test [4] (first compound 0.6325 µM) was determined as 1.17; in test [4] (first compound 2 µM), 1.16.

Take UMC-11: the relative viability was 0.467 in test [1] (first compound 0.02 µM); 0.39 in test [1] (first compound 0.06325 µM); 0.523 in test [1] (first compound 0.2 µM); 0.47 in test [1] (first compound 0.6325 µM); 0.497 in test [1] (first compound 2 µM); 0.742 in test [2] (first compound 0.02 µM). Moreover, the relative viability worked out at 0.69 in test [2] (first compound 0.06325 µM); 0.793 in test [2] (first compound 0.2 µM); 0.669 in test [2] (first compound 0.6325 µM); 0.767 in test [2] (first compound 2 µM); 0.983 in test [3] (first compound 0.02 µM); 1.1 in test [3] (first compound 0.06325 µM). Besides, the relative viability is 0.986 in test [3] (first compound 0.2 µM); 1.07 in test [3] (first compound 0.6325 µM); 1.07 in test [3] (first compound 2 µM); 1.04 in test [4] (first compound 0.02 µM); 1.01 in test [4] (first compound 0.06325 µM); 0.96 in test [4] (first compound 0.2 µM). Besides, the relative viability in test [4] (first compound 0.6325 µM) is 0.963; in test [4] (first compound 2 µM), 0.724.
